Test results taken from PubChem BioAssay (NCI).
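48-hour exposure; five concentrations; linearly interpolated endpoints. GI50 = concentration required for 50% inhibition of growth. The concentration for full growth arrest is given as TGI.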

What was measured:
Assay in all cases: NCI-60 cell line screen, 48 h
[1] = tested on: HCT-116 colon
[2] = tested on: UACC-62 melanoma
[3] = tested on: MDA-MB-231 breast
[4] = tested on: 786-0 renal
[5] = tested on: TK-10 renal
[6] = tested on: UACC-257 melanoma
[7] = tested on: MOLT-4 leukemia
[8] = tested on: NCI/ADR-RES ovarian
[9] = tested on: NCI-H522 lung
[10] = tested on: HCT-15 colon
[11] = tested on: SF-539 CNS
[12] = tested on: U251 CNS
[13] = tested on: OVCAR-3 ovarian
[14] = tested on: SK-MEL-5 melanoma
[15] = tested on: NCI-H460 lung
[16] = tested on: PC-3 prostate
[17] = tested on: OVCAR-8 ovarian
[18] = tested on: SW-620 colon
[19] = tested on: HL-60(TB) leukemia
[20] = tested on: ACHN renal
[21] = tested on: HOP-62 NSCLC
[22] = tested on: SR leukemia
[23] = tested on: KM12 colon
[24] = tested on: HCC-2998 colon
[25] = tested on: EKVX NSCLC
[26] = tested on: K-562 leukemia
[27] = tested on: COLO 205 colon
[28] = tested on: OVCAR-5 ovarian
[29] = tested on: MDA-MB-435
[30] = tested on: IGROV1 ovarian
[31] = tested on: SNB-75 CNS
[32] = tested on: NCI-H226 lung
[33] = tested on: HT29 colon
[34] = tested on: SF-295 CNS
[35] = tested on: OVCAR-4 ovarian
[36] = tested on: M14 melanoma
[37] = tested on: SNB-19 CNS
[38] = tested on: CCRF-CEM leukemia
[39] = tested on: CAKI-1 renal
[40] = tested on: RPMI-8226 leukemia
[41] = tested on: MCF7 breast
[42] = tested on: BT-549 breast
[43] = tested on: SK-OV-3 ovarian
[44] = tested on: SK-MEL-2 melanoma
[45] = tested on: UO-31 renal
[46] = tested on: A549 NSCLC
[47] = tested on: RXF 393 renal
[48] = tested on: HS 578T breast
[49] = tested on: HOP-92 NSCLC
[50] = tested on: SF-268 CNS
[51] = tested on: MALME-3M melanoma
[52] = tested on: NCI-H23 lung
[53] = tested on: SK-MEL-28 melanoma
[54] = tested on: DU-145 prostate
[55] = tested on: T-47D breast
[56] = tested on: SN12C renal

Compound: Cc1ccc(N=Nc2c(O)c(C(=O)O)cc3ccccc23)cc1C
- TGI [1]: > 100 µM
- TGI [2]: > 100 µM
- TGI [3]: > 100 µM
- TGI [4]: > 100 µM
- TGI [5]: > 100 µM
- TGI [6]: > 100 µM
- TGI [7]: > 100 µM
- TGI [8]: > 100 µM
- TGI [9]: > 100 µM
- TGI [10]: > 100 µM
- TGI [11]: > 100 µM
- TGI [12]: > 100 µM
- TGI [13]: > 100 µM
- TGI [14]: > 100 µM
- TGI [15]: > 100 µM
- TGI [16]: > 100 µM
- TGI [17]: > 100 µM
- TGI [18]: > 100 µM
- TGI [19]: > 100 µM
- TGI [20]: > 100 µM
- TGI [21]: > 100 µM
- TGI [22]: > 100 µM
- TGI [23]: > 100 µM
- TGI [24]: > 100 µM
- TGI [25]: > 100 µM
- TGI [26]: > 100 µM
- TGI [27]: > 100 µM
- TGI [28]: > 100 µM
- TGI [29]: > 100 µM
- TGI [30]: > 100 µM
- TGI [31]: > 100 µM
- TGI [32]: > 100 µM
- TGI [33]: > 100 µM
- TGI [34]: > 100 µM
- TGI [35]: > 100 µM
- TGI [36]: > 100 µM
- TGI [37]: > 100 µM
- TGI [38]: > 100 µM
- TGI [39]: > 100 µM
- TGI [40]: > 100 µM
- TGI [41]: > 100 µM
- TGI [42]: > 100 µM
- TGI [43]: > 100 µM
- TGI [44]: > 100 µM
- TGI [45]: > 100 µM
- TGI [46]: > 100 µM
- TGI [47]: > 100 µM
- TGI [48]: > 100 µM
- TGI [49]: > 100 µM
- TGI [50]: > 100 µM
- TGI [51]: > 100 µM
- TGI [52]: > 100 µM
- TGI [53]: > 100 µM

Compound: N#Cc1cccc(CSc2ncnc3nc[nH]c23)c1
- GI50 [2]: 75.7 µM
- GI50 [5]: 99.2 µM
- GI50 [7]: 85.2 µM
- GI50 [8]: 27.6 µM
- TGI [8]: 80.8 µM
- GI50 [14]: 89.5 µM
- GI50 [15]: 74 µM
- GI50 [54]: 73.6 µM
- GI50 [22]: 38.9 µM
- GI50 [26]: 38.2 µM
- GI50 [29]: 89.8 µM
- GI50 [55]: 56 µM
- GI50 [56]: 91 µM
- GI50 [31]: 23.7 µM
- TGI [31]: 87.7 µM
- GI50 [38]: 61.8 µM
- GI50 [40]: 40.4 µM
- GI50 [45]: 71.9 µM
- GI50 [47]: 32.8 µM
- GI50 [48]: 64.2 µM
- GI50 [49]: 16.5 µM
- TGI [49]: 97.5 µM
